Measurements from ChEMBL document CHEMBL1130678, “Thio-sugars. IV: Design and synthesis of S-linked fucoside analogs as a new class of alpha-L-fucosidase inhibitors” (Bioorg Med Chem Lett, 1998).

Molecular target: T1, Tissue alpha-L-fucosidase (Homo sapiens, UniProt P04066)
T1 sequence (P04066 whole entry): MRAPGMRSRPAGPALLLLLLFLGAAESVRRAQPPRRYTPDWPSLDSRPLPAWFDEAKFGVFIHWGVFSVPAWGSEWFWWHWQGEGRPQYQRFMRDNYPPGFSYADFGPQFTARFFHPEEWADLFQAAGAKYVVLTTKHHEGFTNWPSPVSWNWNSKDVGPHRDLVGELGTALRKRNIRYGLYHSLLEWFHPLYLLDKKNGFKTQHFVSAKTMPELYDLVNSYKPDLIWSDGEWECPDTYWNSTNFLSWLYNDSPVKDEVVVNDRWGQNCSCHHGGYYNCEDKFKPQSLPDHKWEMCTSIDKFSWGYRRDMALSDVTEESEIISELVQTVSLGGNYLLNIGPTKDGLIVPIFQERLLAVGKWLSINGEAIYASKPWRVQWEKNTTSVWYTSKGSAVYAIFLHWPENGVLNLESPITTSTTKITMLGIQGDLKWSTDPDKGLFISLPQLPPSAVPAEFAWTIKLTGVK
Test: Inhibitory activity against alpha-L-fucosidase in human placenta at PH of 6.5; Mixed Inhibition type

Ki: 3.9 µM
SMILES: CC(=O)NCSC1OC(C)C(O)C(O)C1O (stereo unspecified)
